This experiment has as its system survivin, Bcl-2, Bcl-xL, MMP-9, cleaved PARP, cleaved caspase-3. Briefly: Immunoblotting of Stat3 downstream targets and apoptosis markers. It is filed as cell-based. The protocol: (§1) Whole cell lysates were prepared by incubation of harvested, trypsinised cells with CelLytic™ lysis buffer (Sigma-Aldrich) supplemented with 1× protease and 1× phosphatase inhibitors (Roche). Protein quantification was carried out using a protein assay kit (Bio-Rad). 40 μg of the lysates were denatured by heating for 5 min at 95° C. in sample buffer containing 100 mM Tris-Cl (pH 6.8), 4% SDS, 10% 2-mercaptoethanol, 20% glycerol, and 0.02% bromophenol blue. Precision Plus Protein Dual colour standards (Bio-Rad) were used as a molecular weight reference. For the detection of STAT3, pSTAT3, α/β tubulin, cleaved PARP, Bcl-2, Bcl-xL, FANCD2, BRCA1, EME1 and MUS81, proteins were separated on a NuPAGE 7% Tris-acetate gel (Life Technologies) and subsequently transferred to polyvinylidene difluoride membranes (Immobilon®-P transfer membrane; Millipore). […] Membranes were blocked for 1 h at ambient temperature in a blocking buffer containing 5% w/v Bovine Serum Albumin (BSA; Sigma-Aldrich) in 1×TBS, 0.1% Tween-20. All proteins were identified by incubation in a 1:1000 dilution of the respective polyclonal antibodies (Cell signaling) in blocking buffer overnight at 4° C. and subsequent incubation for 1 h with an anti-rabbit or anti-mouse secondary antibody (Cell signalling) at a dilution of 1:1000. The α/β tubulin (1:2000; Cell Signaling) and the anti-phospho-histone H2AX Antibody (1:500; Millipore) were used in the denoted dilutions. Antibody binding was visualized by enhanced chemiluminescence (Amersham) on autoradiography film (Kodak-X-Omat). Alternatively Images were captured by the GelDoc-It Imaging System Fusion Fx7 (Vilber Lourmat, Germany).
as §1, with “Immunoblotting. Whole” for “Whole”, “CelLytic™ M” for “CelLytic™”, “pSTAT3, a/0” for “pSTAT3, α/β”, “in 1×TBS” for “in 1×TBS,”, “(Cell signalling)” for “(Cell signaling)”
In general terms: In western blotting, separated proteins are transferred to a membrane and probed.

Setting [1] is: A2780-cisplatin resistant cells.

With `COc1cc(/C=C2\CN(c3ccccc3)C/C(=C\c3cc(OC)c(OC)c(OC)c3)C2=O)cc(OC)c1OC` [IE-8, 3,5-Di(3,4,5-trimethoxybenzylidene)-1-phenylpiperidin-4-one], under setting [1], the “induction of apoptosis (cleaved PARP, cleaved caspase 3, Annexin-V/PI)” value is listed as “induced apoptosis”; the “inhibition of downstream Stat3 targets Bcl-xL and survivin” value was “capable of inhibiting”. Further, the “downregulation of MMP-9” value (A2780-cisplatin resistant cells, IL-6 stimulated) is reported as “downregulates the matrix metalloproteinase MMP-9”. Besides, the “induction of apoptosis (cleaved PARP)” value (DU145 and A549 cells, 18 h) is “induced cell death via apoptosis”. For the same molecule, the “downregulation of survivin and Bcl-2” value (DU145 cells, 18 h) was “downregulated the transcription of key Stat3 target genes”.

(Values after US11964943B2, “3,5-diarylidenyl-n-substituted-piperid-4-one-derived inhibitors of Stat3 pathway activity and uses thereof” (priority 2017, dated 2024).)
